From patent publication US20150315211A1, “SMALL MOLECULES FOR THE MODULATION OF MCL-1 AND METHODS OF MODULATING CELL DEATH, CELL DIVISION, CELL DIFFERENTIATION AND METHODS OF TREATING DISORDERS” (priority 2010, published 2015)

Columns and labels:
BCL-XLΔC = BCL-XLΔC (Homo sapiens, UniProt Q07817); assay: High-throughput competitive FP binding screen, FITC-BAD BH3/BCL-XLΔC interaction; settings: FITC-BAD BH3/BCL-XLΔC interaction pair, competitive FP screen
MCL-1ΔNΔC [1] = assay: High-throughput competitive FP binding screen, FITC-MCL-1 SAHB/MCL-1ΔNΔC interaction; settings: selectivity for MCL-1ΔNΔC over BCL-XLΔC targeting (BCL-XL % Bound minus MCL-1 % Bound)
MCL-1ΔNΔC [2] = target: MCL-1ΔNΔC (Homo sapiens, UniProt Q07820); assay: as above; design: the C-terminal alpha-helix was deleted from each of these constructs; GST (N, cleaved yes); made in house; settings: FITC-MCL-1 SAHB/MCL-1ΔNΔC interaction pair, competitive FP screen
Chain of MCL-1ΔNΔC (Homo sapiens, UniProt Q07820) (Q07820 172-320 limits assumed, stated change not applied): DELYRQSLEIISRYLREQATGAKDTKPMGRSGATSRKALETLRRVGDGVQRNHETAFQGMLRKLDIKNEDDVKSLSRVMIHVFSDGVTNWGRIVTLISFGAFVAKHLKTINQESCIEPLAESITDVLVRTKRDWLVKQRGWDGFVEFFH

Chain of BCL-XLΔC (Q07817 1-212 limits assumed, stated change not applied): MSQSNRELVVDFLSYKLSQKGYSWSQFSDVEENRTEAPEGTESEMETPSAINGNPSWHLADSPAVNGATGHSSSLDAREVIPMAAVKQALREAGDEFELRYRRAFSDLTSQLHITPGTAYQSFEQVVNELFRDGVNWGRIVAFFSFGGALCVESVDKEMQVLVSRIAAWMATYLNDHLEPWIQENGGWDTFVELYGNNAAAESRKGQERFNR

Row | SMILES | BCL-XL % Bound (BCL-XLΔC) | Spec Values (MCL-1ΔNΔC [1]) | MCL-1% Bound (MCL-1ΔNΔC [2])
1 | Cc1conc1NC(c1cccs1)c1ccc2cccnc2c1O (stereo not drawn) | 103.8% | 45.42 | 58.33%
2 | N#CC1=C(c2ccc(Cl)cc2)COC1=O | 88.12% | 60.84 | 27.28%
3 | O=C(CSc1nnc(-c2ccco2)c(-c2ccco2)n1)N1c2ccccc2Sc2ccc(Cl)cc21 | 98.3% | 60.7 | 37.6%
4 | N#C/C(=C/c1cn(Cc2ccc(C(=O)O)o2)c2ccccc12)c1ccc(F)cc1 | 65.03% | 60.36 | 4.673%
5 | CS/C(=N\S(=O)(=O)c1ccccc1)NNc1ccccc1 | 99.39% | 59.46 | 39.93%
6 | O=C1C=CC(=O)C(CCCCCCC2=CC(=O)C=CC2=O)=C1 | 106.5% | 59.34 | 47.19%
7 | Cc1ccc2c(CC(=O)NCC(=O)OCc3ccccc3)coc2c1 | 95.64% | 59.09 | 36.55%
8 | Cc1ccc(C(c2c(O)ccc3ccccc23)N2CCOCC2)o1 (stereo not drawn) | 100.8% | 59.04 | 41.79%
9 | O=c1[nH]cnc2ccc(Br)cc12 | 93.69% | 59.02 | 34.67%
10 | Cc1ccc(/C=C2\C(=O)Nc3ccc(Br)cc32)o1 | 77.59% | 58.85 | 18.74%
11 | COc1cc(C2Nc3cccc4cccc(c34)N2)cc(I)c1O | 81.48% | 58.66 | 22.81%
12 | Cc1ccccc1-c1nnc(SCC(=O)NC(=O)Nc2ccccc2F)n1C | 98.1% | 58.58 | 39.52%
13 | O=C1COc2ccc(-c3cs/c(=N\c4ccc(F)cc4)n3/N=C/c3ccc(O)c(O)c3)cc2N1 | 97.64% | 58.52 | 39.12%
14 | O=C1C2=C(C(=O)c3ccccc31)C(c1ccccc1O)c1sc(=O)[nH]c1S2 (stereo not drawn) | 88.86% | 58.45 | 30.41%
15 | CN1CCCN(Cc2cc(C(C)(C)C)c(O)c(C(C)(C)C)c2)CC1 | 83.5% | 58.29 | 25.21%
16 | O=C(CC1C(=O)c2ccccc2S1(=O)=O)NC1=NN(c2ccccc2)C(=O)C1 (stereo not drawn) | 65.35% | 57.74 | 7.61%
17 | c1coc(C2Nc3cccc4cccc(c34)N2)c1 | 106.3% | 57.32 | 48.94%
18 | CC(C)Cn1c2ccc(Cl)cc2c2nc3ccccc3nc21 | 89.44% | 57.12 | 32.32%
19 | c1cc(CNc2ccc(N3CCCC3)cc2)ccn1 | 95.63% | 56.89 | 38.73%
20 | COc1ccc(C2=CC(=O)C=CC2=O)cc1 | 92.03% | 56.64 | 35.4%
21 | Oc1ccc(NCc2ccc(Br)cc2)cc1 | 90.95% | 56.32 | 34.63%

Row | SMILES | BCL-XL % Bound (BCL-XLΔC) | Spec Values (MCL-1ΔNΔC [1]) | MCL-1% Bound (MCL-1ΔNΔC [2])
22 | CCN(CC)S(=O)(=O)c1ccc(-c2ccc(/C=N/N=C3\NC(=O)C(CC(=O)Nc4ccccc4)S3)o2)cc1 (stereo not drawn) | 100.7% | 56.3 | 44.37%
23 | O=C1CSCC(=O)N1c1cc(C(F)(F)F)cc(C(F)(F)F)c1 | 101.7% | 56.05 | 45.62%
24 | O=C1C=CC(=O)N1CCc1ccc(Cl)cc1 | 97.07% | 55.93 | 41.14%
25 | N#C/C(=C\C=C\c1ccco1)C(N)=S | 63.54% | 55.72 | 7.822%
26 | O=C1C=CC(=O)C(Sc2nnnn2-c2ccccc2)=C1 | 101.3% | 55.69 | 45.56%
27 | Cc1ccc2n1CCn1cc(-c3ccc(Br)cc3)cc1-2 | 99.37% | 55.6 | 43.77%
28 | O=C(CSc1ncc(C(F)(F)F)cc1Cl)NC(=O)CN1CCCC1=O | 98.97% | 55.6 | 43.37%
29 | N#CC(C#N)=C(C#N)c1ccc(-c2ccccc2)[nH]1 | 90.7% | 55.59 | 35.11%
30 | c1ccc2c(c1)nc(Nc1ccc(N3CCCCC3)cc1)c1nncn12 | 90.45% | 55.41 | 35.03%
31 | C/C(=N\OCc1ccc(C(=O)N2CCCCC2)o1)c1cccc(C(F)(F)F)c1 | 110.8% | 55.34 | 55.48%
32 | CCOc1ccc2c(c1)C(C)=CC(C)(C)N2C(=O)CSc1nnc(C2CC2)n1C | 95.37% | 55.24 | 40.13%
33 | CCc1ccc2c(c1)C1(NN=C(c3ccccc3)S1)C(=O)N2 (stereo not drawn) | 99.43% | 55.23 | 44.19%
34 | Cc1cccc(NC(=O)CSc2nncc(=O)[nH]2)c1 | 82.27% | 55 | 27.28%
35 | Cc1ccc(C)n1Cc1ccc(C(=O)O)cc1 | 91.45% | 54.85 | 36.6%
36 | CC(C)CNC(=O)CCc1nc(-c2ccccc2)no1 | 92.21% | 54.73 | 37.48%
37 | Fc1ccccc1OCCSc1nnc2c(n1)[nH]c1ccccc12 | 99.56% | 54.35 | 45.2%
38 | N#Cc1cc2c([nH]c1=S)CCC2 | 86.64% | 54.04 | 32.6%
39 | O=C(O)C1CCCN(c2nn3cc(-c4ccc(F)cc4)nc3s2)C1 (stereo not drawn) | 82.02% | 53.98 | 28.04%
40 | CN(C)c1ccc2cccc(O)c2n1 | 95.09% | 53.86 | 41.22%
41 | CCOc1cccc(/C=N/n2c(S)nnc2-c2ccc(Cl)cc2)c1O | 96.58% | 53.75 | 42.83%
42 | CCCCCOc1ccc(C(=O)/C=C/C(=O)O)cc1 | 97.46% | 53.61 | 43.85%

Row | SMILES | BCL-XL % Bound (BCL-XLΔC) | Spec Values (MCL-1ΔNΔC [1]) | MCL-1% Bound (MCL-1ΔNΔC [2])
43 | Cc1nc2sccn2c1-c1nc(-c2ccc(Br)o2)c(C(=O)c2ccc3c(c2)OCCO3)s1 | 93.3% | 53.55 | 39.75%
44 | CC1CCC[SH](c2cc(O)ccc2O)C1 (stereo not drawn) | 94.72% | 53.57 | 41.16%
45 | O=c1c(O)cccc2cc(O)c(O)c(O)c12 | 33.74% | 53.55 | −19.81%
46 | CC(/N=C/c1cccc(O)c1O)c1ccccc1 (stereo not drawn) | 93.71% | 53.29 | 40.42%
47 | N#CSC(C#N)Cc1ccccc1 (stereo not drawn) | 103.6% | 53.23 | 50.39%
48 | O=C(CSc1nnc(-c2ccoc2)c(-c2ccoc2)n1)c1ccc(-c2ccccc2)cc1 | 98.52% | 53.14 | 45.38%
49 | Oc1ccc(CNc2ccccc2O)cc1 | 89.38% | 53.12 | 36.26%
50 | CCCOc1nc2c(c(-c3ccco3)c1C#N)CCCC2 | 83.67% | 52.96 | 30.71%
51 | NC1=C(c2nc3ccccc3s2)CC(=O)N1CCc1ccccc1 | 108.5% | 52.91 | 55.57%
52 | C/C(=N\NC(=S)Nc1ccccc1C)c1ccc(O)cc1 | 103.4% | 52.6 | 50.82%
53 | C=CCSc1nnc(-c2ccc(C(C)(C)C)cc2)n1Cc1ccco1 | 122.3% | 52.3 | 69.99%
54 | COC(=O)c1c(NC(=S)Nn2cnnc2)sc2c1CCC(C)C2 (stereo not drawn) | 77.55% | 52.28 | 25.26%
55 | O=C(/C=C/c1ccco1)NC(=S)Nc1ccccc1C(F)(F)F | 99.25% | 52.25 | 47.01%
56 | O=C(/C=C/c1ccc(Br)o1)OCC(=O)c1c[nH]c2ccccc12 | 105.6% | 52.14 | 53.49%
57 | CCC(c1nnc(SCC(=O)NCCc2ccc(Cl)cc2Cl)o1)N(C)C (stereo not drawn) | 101.6% | 52.14 | 49.44%
58 | CCN1C(=O)C2Cc3cc(OC)c(OC)cc3CN2C1=S (stereo not drawn) | 91.73% | 51.9 | 39.84%
59 | CCn1c(-c2ccccc2)cnc1S | 105.8% | 51.73 | 54.03%
60 | C=C/C(=C\C)N(CC)S(=O)(=O)c1ccc(Oc2ccc(-n3ccnc3)cc2)nc1 | 102.9% | 51.73 | 51.21%
61 | Cc1ccc(NCc2n[nH]c(=S)n2-c2ccccc2)cc1 | 94.84% | 51.62 | 43.22%
62 | COc1ccc(-n2nc3cc(C)c(N)c(Br)c3n2)cc1 | 83.97% | 51.41 | 32.56%
63 | Cc1nn(-c2ccccc2)c2nc3ccccc3c(N3CCOCC3)c12 | 98.28% | 50.97 | 47.31%
